Laboratory results from patent US6245758A, “Methods of use for peroxynitrite decomposition catalysts, pharmaceutical compositions therefor” (priority 1996, dated 2001).

Assays:
CuZnSOD = experiment: Inactivation of CuZnSOD by peroxynitrite (stopped flow superoxide dismutase activity); details: 250 uM EDTA alone
Protocol: Stock solutions of bovine liver CuZnSOD (DDI Pharmaceuticals Inc., Mountain View CA) were prepared by dissolving -1.0 mg of enzyme in 10 mL of 50 mM potassium phosphate buffer at a pH=7.4. […] All kobs were the average of triplicate runs using a stopped flow spectrophotometer manufactured by Kinetic Instruments Inc. (Ann Arbor, Mich.) and was interfaced to a MAC IICX personal computer.
Inactivation of CuZn SOD by peroxynitrite.
Inactivation of peroxynitrite was performed by aloquating 1.0 mL of stock CuZn SOD solution into 50 mM potassium phosphate buffer pH=7.4 such that a final assay volume of 10 mL is achieved after addition of peroxynitrite and EDTA solutions. To these assay solution was added various amounts of peroxynitrite (25 mM stock solution) such that the final concentration of peroxynitrite in the assay varied from 0, 25, 50, 75 and 100 uM. After the addition of peroxynitrite, 100 uL of a 2.5 mM stock EDTA solution was added to each assay solution such that the final concentration of EDTA was 250 uM. Each solution was then assayed by stopped flow analysis for superoxide dismutase activity.

[1] = Stopped-flow kinetic analysis of catalytic decomposition of peroxynitrite by metal complexes; details: pH = 7.4, 22° C.
Protocol: To screen metal complexes for peroxynitrite decomposition catalytic activity of the present invention, peroxynitrite is prepared and isolated as its sodium salt by the reaction of acidic hydrogen peroxide with sodium nitrite followed by rapid quenching with NaOH as set out by Halfpenny and Robinson, in J. Chem. So., 1952, 928-938. Peroxynitrite has an absorbance maximum at 302 nm with an extinction coefficient of 1670 M^-1 cm^-1. Therefore, it is possible to directly observe the decomposition of peroxynitrite by stop-flow spectrophotometric analysis by monitoring the decomposition of the absorbance at 302 nm. That is, such observation of the decomposition of peroxynitrite at a rate accelerated over the natural decomposition rate with the addition of the metal complex identifies a compound of the present invention.
Kinetic measurements were made on an OLIS Rapid Scanning Stopped-Flow Spectrometer (On-Line Instrument Systems Inc., Bogart, Ga.)) using the OLISRSM-1000 Operating system for data acquisition and manipulation.
Thus, in a typical experiment the natural background decomposition rate of sodium peroxynitrite was determined as follows. A 24 mM stock solution of sodium peroxynitrite in 50 mM NaOH is load into the small volume syringe and 100 mM potassium phosphate pH=7.4 is charged into the large volume syringe of the stopped-flow spectrophotometer. All stopped -flow measurements were made at 22 ° C. Injection of the solutions into the sample compartment results in ~25 fold dilution of the stock sodium peroxynitrite. […] To test for catalytic peroxynitrite decomposition activity, the metal complex was dissolved in 100 mM potassium phosphate buffer pH=7.4 and loaded into the large syringe and the decomposition of peroxynitrite was monitored as described above. The catalytic rate constant (kcat M-1 sec^-1) for the complexes tested was determined by varying the complex concentration and plotting kobs vs [complex] Table 1. The kobs were obtained from averages of three stopped flow analysis at each catalyst concentration.

RAW 264.7 cells = experiment: Cell protection assay, Alamar Blue viability after peroxynitrite challenge; assay type: cell-based, murine; details: PN 500 micromolar; RAW cells, FIG. 9 (H2 TMPyP and ZnTMPyP: data not shown)
Protocol: FIG. 8: Comparison of Ni and Fe Catalyst Protection of RAW Cells from PN(peroxynitrite)-mediated Injury. RAW 264.7 cells were plated at approximately 2×10^5 per well of a 96-well plate. […] Each condition represents the mean of 4 wells ±sem.
FIG. 9: Protection from PN-mediated RAW Cell Injury by Fe Catalysts. Cells were treated with 500 micromolar PN in the presence or the absence of the following catalysts: FeTMPyP, FeTMPS, FeTPPS. Cell viability was monitored as described in the text and figure legends 1, 2 and 3. Values represent the mean of 4 determinations ±sem.
Protocol for Cell Protection Assays using Peroxynitrite Decomposition Catalysts: A cell viability assay was established to rapidly assess the efficacy of peroxynitrite(PN) catalysts in protecting cells from PN25 mediated injury and death. The peroxynitrite challenge consisted of a pulse of synthetic PN added exogenously to cells. In order to better assess the efficacy of PN catalysts in protecting cells from PN-mediated damage, a quantity of peroxynitrite(in 50 mM NaOH) determined to cause maximal injury(100%) was added as an exogenous pulse to each well of cells in the presence or absence of catalyst. The NaOH vehicle was not toxic by itself.
Cells(RAW 264.7 cells or P815 mastocytoma cells; American Type Culture Collection, Rockville, Md.) were plated to confluence on 96-well tissue culture plates. Each well is washed twice with Dulbecco's phosphate buffered saline(DPBS; GIBCO BRL, Grand Island, N.Y.) to remove protein and other serum components which might react with the exogenous peroxynitrite. To each well is then added 200 μl of DPBS. PN is next placed into separate wells at increasing concentrations and cell viability monitored. The dose at which maximal cell death is attained is then utilized for the catalyst protection assessment.
Phosphate-buffered saline (200 uL) containing increasing concentrations of catalyst is next placed into individual wells of cells. The maximal dose of PN is subsequently administered to all wells of cells. After 15 minutes, the medium is removed from each well and the cells are either allowed to recover overnight in Earles minimum essential medium without phenol red and supplemented with 10% fetal bovine serum or alternatively the plate of cells is assayed that day for mitochondrial integrity using the Alamar Blue viability assay(Alamar Biosciences, Inc.; Sacramento, Calif.). In either case, cells are incubated at 37° C. in 5% CO2.
Cell injury is measured as follows. Briefly, 10% Alamar Blue(v/v) in Earles MEM with 10% FBS is added to each well of cells for 1-2h. Cell metabolism of the dye generates a fluorescent product which is directly related to the number of viable cells. Moreover, the production of the fluorescent metabolite is linear for over 2 h. The amount of fluorescent product in 100 μl of conditioned medium from each well of cells is then measured with an IDEXX fluorescent plate reader (gain setting of 1%) at an emission wavelength of 575 nm after exciting at 545 nm. Viability is either given as absolute fluorescent units or as a percent of the value obtained for untreated cells(100%).

[2] = test system: carrageenan-induced paw edema; experiment: Carrageenan-induced paw edema; assay type: in vivo, rat
Description: Carrageenan-induced paw edema. The effects of peroxynitrite catalysts in vivo were initially tested on the carrageenan-induced paw edema. The choice of using this in vivo model of inflammation was based on the knowledge that 1) the inflammatory response is blocked by NOS inhibitors and 2) by superoxide dismutase (SOD). This indicates the participation of both NO and of O2-. Male Sprague Dawley rats were purchased from Harlan Sprague-Dawley (Indianapolis, Ind.). Male Sprague Dawley rats (175-200 g) received a subplantar injection in the right hind paw of carrageenan (0.1 ml of a 1% suspension in 0.85% saline). Paw volume was measured by a plethysmometer immediately before the injection of carrageenan and then at hourly intervals from 1 to 6 h. Edema was expressed as the increase in paw volume (in ml) measured after carrageenan injection compared to the pre-injection value for individual animals.

rat jejunum = experiment: Intestinal vascular permeability (radiolabelled albumin leakage) after endotoxin (LPS); assay type: in vivo; details: 30 mg/kg, i.v, 3 h after LPS; determined 1 h later
Protocol: FIG. 10 . Effects of FeTMPS, FeTMPyP or ZnTMPyP (30 mg/kg, i.v bolus) administered 3 h after challenge with E. coli lipopolysaccharide (LPS, 3 mg/kg, i.v bolus) on the increase in leakage of radio-labelled albumin (plasma extravasation, μl/g tissue) observed 1 h later (e.g 4 h after LPS challenge) in the rat jejunum. Results are shown as mean±s.e.m of 4-8 rats.
Intestinal vascular permeability was determined as the leakage into the jejunal tissue of [^125 I]-labelled bovine serum albumin ([^125 ]-BSA) administered intravenously (0.5 ml; 0.5 μCi) together with either LPS (3 mg/kg, serotype O111:B4) or isotonic saline. At 4 h after LPS administration, segments of jejunal tissue were ligated and removed. The intestinal tissues were rapidly washed, blotted dry and weighed. Blood (0.5 ml) was collected into tubes containing tri-sodium citrate (0.318% final concentration) and plasma prepared by centrifugation (10,000 g×10 min). The {^125 I]-BSA content in segments of whole tissue and in aliquots of plasma (100 μl) was determined in a gamma counter. The total content of plasma in the intestinal tissues was expressed as μl/g tissue. Changes in intravascular volume in the intestinal tissue was determined in an additional group of rats by administering ([^125 I]-BSA) intravenously 2 min before removal of the jejunum. The tissue and plasma content of radiolabel was determined and intravascular volume expressed as μl/g tissue. This value was substracted from that obtained in the plasma leakage studies to obtain a measure of the intestinal plasma albumin leakage. After LPS administration (4 h), there was a significant (P<0.01) increase in the plasma leakage (from 77±10 to 224±18 μl/g tissue, n=8).

For O=C(O)CN(CCN(CC(=O)O)CC(=O)O)CC(=O)O [EDTA], the “CuZnSOD activity in control reaction” value (CuZnSOD) was “no decrease in CuZnSOD activity”.

For CC(=O)[O-].O=S(=O)(O)c1ccc(-c2c3nc(c(-c4ccc(S(=O)(=O)O)cc4)c4ccc([n-]4)c(-c4ccc(S(=O)(=O)O)cc4)c4nc(c(-c5ccc(S(=O)(=O)O)cc5)c5ccc2[n-]5)C=C4)C=C3)cc1.[Fe+3] [Fe(III)TPPS, Acetato-5,10,15,20-tetrakis(4-sulfonatophenyl)porphyrin iron(III)], the “kcat, catalytic rate constant for the decomposition of sodium peroxynitrite” value [1] was 2.06e+06 M⁻¹ s⁻¹, the “protection of cells from PN-mediated injury” value (RAW 264.7 cells) was “significant protection of cells” and the “% Inhibition of Paw Edema” value ([2]; 3 mg/kg i.v., 1 h post carrageenan) was 0%. The “% Inhibition of Paw Edema” value ([2]; 3 mg/kg i.v., 2 h post carrageenan) was 29%, the “% Inhibition of Paw Edema” value ([2]; 3 mg/kg i.v., 3 h post carrageenan) was 20% and the “% Inhibition of Paw Edema” value ([2]; 3 mg/kg i.v., 4 h post carrageenan) was 20%. The “% Inhibition of Paw Edema” value ([2]; 3 mg/kg i.v., 5 h post carrageenan) was 19%, the “% Inhibition of Paw Edema” value ([2]; 3 mg/kg i.v., 6 h post carrageenan) was 5% and the “% Inhibition of Paw Edema” value ([2]; 10 mg/kg i.v., 1 h post carrageenan) was 0%. For the same compound, the “% Inhibition of Paw Edema” value ([2]; 10 mg/kg i.v., 2 h post carrageenan) was 17%, the “% Inhibition of Paw Edema” value ([2]; 10 mg/kg i.v., 3 h post carrageenan) was 20% and the “% Inhibition of Paw Edema” value ([2]; 10 mg/kg i.v., 4 h post carrageenan) was 23%. The “% Inhibition of Paw Edema” value ([2]; 10 mg/kg i.v., 5 h post carrageenan) was 19%, the “% Inhibition of Paw Edema” value ([2]; 10 mg/kg i.v., 6 h post carrageenan) was 20% and the “% Inhibition of Paw Edema” value ([2]; 30 mg/kg i.v., 1 h post carrageenan) was 0%. For the same compound, the “% Inhibition of Paw Edema” value ([2]; 30 mg/kg i.v., 2 h post carrageenan) was 27%, the “% Inhibition of Paw Edema” value ([2]; 30 mg/kg i.v., 3 h post carrageenan) was 25% and the “% Inhibition of Paw Edema” value ([2]; 30 mg/kg i.v., 4 h post carrageenan) was 30%. For the same compound, the “% Inhibition of Paw Edema” value ([2]; 30 mg/kg i.v., 5 h post carrageenan) was 34% and the “% Inhibition of Paw Edema” value ([2]; 30 mg/kg i.v., 6 h post carrageenan) was 33%.

For C[n+]1ccc(-c2c3nc(c(-c4cc[n+](C)cc4)c4ccc([nH]4)c(-c4cc[n+](C)cc4)c4nc(c(-c5cc[n+](C)cc5)c5ccc2[nH]5)C=C4)C=C3)cc1.[Zn+2] [ZnTMPyP, reference compound], the “kcat, catalytic rate constant for the decomposition of sodium peroxynitrite” value [1] was “Inactive”, the “protection of cells from PN-mediated injury” value (RAW 264.7 cells) was “relatively ineffective” and the “inhibition of edema formation” value ([2]; 30 mg/kg i.v.) was “failed to inhibit edema formation”. For the same compound, the radiolabelled albumin leakage (rat jejunum) was “did not inhibit radiolabelled albumin leakage”.
